Source: patent US12435068B2, “Anthelmintic compounds” (Elanco Animal Health GmBh, priority 2018, dated 2025)
pEC50: −log10 of the molar value. In brackets after ≈: the same amount, converted by molar mass.

Assays:
[1] = target: C. elegans Slo-1a (Caenorhabditis elegans, UniProt Q95V25)
Method: Cells were cultured at 37° C. and 5% CO2 in MEMalpha with Gutamax I (Invitrogen, Nr.: 32571), supplemented with 10% (v/v) heat inactivated fetal bovine serum (Invitrogen, Nr.: 10500), G418 (1 mg/ml, Invitrogen, Nr.: 10131). Cells were detached using Accutase (Sigma, Nr.: A6964).
Membrane Potential Measurements
Laboratory compound testing was performed on 384-well microtiter plates (MTPs, Greiner, Nr.: 781092). 8000 cells/well were plated onto 384-well MTPs and cultured for 20 to 24 hours at 37° C. and 5% CO2. After removal of the cell culture medium, the cells were washed once with tyrode (150 mM NaCl, 0.3 mM KCl, 2 mM CaCl2, 1 mM MgCl2, 0.8 mM NaH2PO4, 5 mM Glucose, 28 mM Hepes, pH 7.4) and then loaded with the voltage sensitive dye of the Membrane Potential Assay Kit diluted in tyrode for 1 h at room temperature.
After starting the measurement of fluorescence using a FLIPR Tetra (Molecular Devices, Exc. 510-545 nm, Emm. 565-625 nm), test compounds were added followed by the addition of KCl tyrode (final assay concentration: 70 mM KCl, 2 mM CaCl2, 1 mM MgCl2, 0.8 mM NaH2PO4, 5 mM Glucose, 28 mM Hepes, pH 7.4, including the voltage sensitive dye). The measurement was completed after 7 minutes.

[2] = tested on: Dirofilaria immitis microfilariae; assay: In Vitro Assay 2: Dirofilaria immitis microfilariae (DIROIM L1) motility; assay type: cell-based; details: 72 h, read-out: EC50 ppm
[3] = tested on: Dirofilaria immitis larvae; assay: In Vitro Assay 3: Dirofilaria immitis (DIROIM L4) larval motility; assay type: cell-based; details: 72 h, read-out: EC50 ppm

C. elegans Slo-1a, sequence (Q95V25 whole entry): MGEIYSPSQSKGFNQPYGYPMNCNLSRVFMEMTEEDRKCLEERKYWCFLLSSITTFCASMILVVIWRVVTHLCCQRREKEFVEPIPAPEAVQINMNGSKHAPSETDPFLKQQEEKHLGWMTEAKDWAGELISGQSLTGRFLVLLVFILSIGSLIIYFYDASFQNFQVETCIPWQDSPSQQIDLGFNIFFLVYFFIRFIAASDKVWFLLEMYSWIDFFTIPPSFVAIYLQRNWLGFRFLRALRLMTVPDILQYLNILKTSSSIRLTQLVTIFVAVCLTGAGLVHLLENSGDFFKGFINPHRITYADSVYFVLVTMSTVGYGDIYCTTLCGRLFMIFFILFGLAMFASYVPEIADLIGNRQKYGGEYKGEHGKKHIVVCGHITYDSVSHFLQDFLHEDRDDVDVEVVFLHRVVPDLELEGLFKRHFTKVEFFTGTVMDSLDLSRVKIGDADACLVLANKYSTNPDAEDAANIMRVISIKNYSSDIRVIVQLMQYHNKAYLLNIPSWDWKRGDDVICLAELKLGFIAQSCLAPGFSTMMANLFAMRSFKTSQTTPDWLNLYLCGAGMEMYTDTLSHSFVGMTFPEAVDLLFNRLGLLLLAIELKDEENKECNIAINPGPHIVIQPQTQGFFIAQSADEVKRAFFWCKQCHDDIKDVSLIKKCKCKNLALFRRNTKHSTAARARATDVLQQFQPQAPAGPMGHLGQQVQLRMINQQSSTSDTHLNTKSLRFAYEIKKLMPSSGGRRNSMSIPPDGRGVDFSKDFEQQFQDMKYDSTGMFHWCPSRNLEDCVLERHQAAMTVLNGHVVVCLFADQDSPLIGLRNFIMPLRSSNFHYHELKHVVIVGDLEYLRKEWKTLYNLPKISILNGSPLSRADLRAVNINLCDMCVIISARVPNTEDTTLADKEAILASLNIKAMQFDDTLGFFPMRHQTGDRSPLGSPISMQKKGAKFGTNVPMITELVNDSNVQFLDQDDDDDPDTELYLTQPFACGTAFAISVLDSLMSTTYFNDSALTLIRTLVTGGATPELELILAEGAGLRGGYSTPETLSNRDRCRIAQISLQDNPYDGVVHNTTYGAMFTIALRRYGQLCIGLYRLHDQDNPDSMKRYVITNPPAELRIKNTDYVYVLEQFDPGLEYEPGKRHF

Row | SMILES | pEC50 [1] | EC50 [2] | EC50 [3]
1 | CC(C)c1c(C(=O)N[C@H]2CCOc3ccccc32)c(=O)oc2c(-c3cc(Cl)cc(Cl)c3)cccc12 [Example Compound S8a-2, 8-(3,5-Dichlorophenyl)-N-[(4S)-3,4-dihydro-2H-chromen-4-yl]-2-oxo-4-(propan-2-yl)-2H-chromene-3-carboxamide] | 8.90 | < 0.0032 µg/mL | 0.18 µg/mL (≈ 0.354 µM)
2 | CC(C)C1=C(C(=O)N[C@H]2CCOc3ccccc32)COc2c1cccc2-c1cc(Cl)cc(Cl)c1 [Example Compound S8a-1, 8-(3,5-Dichlorophenyl)-N-[(4S)-3,4-dihydro-2H-chromen-4-yl]-4-(propan-2-yl)-2H-chromene-3-carboxamide] | 8.50 | < 0.0032 µg/mL | 0.04 µg/mL (≈ 0.0809 µM)
3 | CC1=C(C(=O)N[C@H]2CCCc3ccccc32)C(C)c2cccc(-c3cc(F)cc(F)c3F)c2O1 (stereo partly drawn) [Example Compound S8b-2, 2,4-Dimethyl-N-[(1S)-1,2,3,4-tetrahydronaphthalen-1-yl]-8-(2,3,5-trifluorophenyl)-4H-chromene-3-carboxamide] | < 4.30 | 0.08 µg/mL (≈ 0.173 µM) | 1.26 µg/mL (≈ 2.72 µM)
4 | CC(C)c1c(C(=O)N[C@H]2CCOc3ccccc32)sc2c(-c3cccc(Cl)c3)cccc12 [Example Compound S1-2, 7-(3-Chlorophenyl)-N-[(4S)-3,4-dihydro-2H-chromen-4-yl]-3-isopropyl-1-benzothiophene-2-carboxamide] | 8.40 | 0.03 µg/mL (≈ 0.0649 µM) | > 0.08 µg/mL
5 | CC1=C(C(=O)N[C@H]2CCc3ccccc32)C(C)c2cccc(-c3cc(Cl)cc(Cl)c3)c2O1 (stereo partly drawn) [Example Compound S8b-1, 8-(3,5-Dichlorophenyl)-N-[(1S)-2,3-dihydro-1H-inden-1-yl]-2,4-dimethyl-4H-chromene-3-carboxamide] |  | 1.47 µg/mL (≈ 3.17 µM) | > 0.4 µg/mL
6 | CN(C)c1c(C(=O)N[C@H]2CCOc3ccccc32)sc2c(-c3cccc(Cl)c3Cl)nccc12 [Example Compound S1-13, 7-(2,3-Dichlorophenyl)-N-[(4S)-3,4-dihydro-2H-chromen-4-yl]-3-(dimethylamino)thieno[2,3-c]pyridine-2-carboxamide] | 7.80 | 0.08 µg/mL (≈ 0.161 µM) | 
7 | CN(C)c1c(C(=O)N[C@H]2CCOc3ccccc32)ncc2c1ccc(=O)n2Cc1ccc(Cl)cc1 [Example Compound S7-2, 1-(4-Chlorobenzyl)-N-[(4S)-3,4-dihydro-2H-chromen-4-yl]-5-(dimethylamino)-2-oxo-1,2-dihydro 1,7-naphthyridine-6-carboxamide] | 6.00 | > 2 µg/mL | 
8 | COc1c(C(=O)N[C@H]2CCOc3ccccc32)sc2c(-c3cccc(Cl)c3)nccc12 [Example Compound S1-15, 7-(3-Chlorophenyl)-N-[(4S)-3,4-dihydro-2H-chromen-4-yl]-3-methoxythieno[2,3-c]pyridine-2-carboxamide] | 6.10 | > 2 µg/mL | 
9 | COc1c(C(=O)N[C@H]2CCOc3ccccc32)sc2c(-c3cc(Cl)cc(Cl)c3)nccc12 [Example Compound S1-14, 7-(3,5-Dichlorophenyl)-N-[(4S)-3,4-dihydro-2H-chromen-4-yl]-3-methoxythieno[2,3-c]pyridine-2-carboxamide] | 6.10 | 2 µg/mL (≈ 4.12 µM) | 
10 | CC(C)c1c(C(=O)N[C@H]2CCc3ccccc32)ccc2c1nnn2-c1ccc(Cl)cc1 [Example Compound S4-6, 1-(4-Chlorophenyl)-N-[(1S)-2,3-dihydro-1H-inden-1-yl]-4-(propan-2-yl)-1H-benzotriazole-5-carboxamide] | 6.60 | > 2 µg/mL | 
11 | O=C(N[C@H]1CCOc2ccccc21)c1cc2cccc(-c3cccc(Cl)c3Cl)c2oc1=O [Example Compound S8a-3, 8-(2,3-Dichlorophenyl)-N-[(4S)-3,4-dihydro-2H-chromen-4-yl]-2-oxo-2H-chromene-3-carboxamide] | 7.30 | 0.25 µg/mL (≈ 0.536 µM) | 
12 | CN(C)c1c(C(=O)N[C@H]2CCOc3ccccc32)sc2c(-c3ccc(F)c(F)c3)cccc12 [Example Compound S1-8, 7-(3,4-Difluorophenyl)-N-[(4S)-3,4-dihydro-2H-chromen-4-yl]-3-(dimethylamino)-1-benzothiophene-2-carboxamide] | 5.50 | 0.63 µg/mL (≈ 1.36 µM) | 
13 | O=C(N[C@H]1CCOc2ccccc21)c1sc2c(-c3cccc(Cl)c3Cl)ccc(F)c2c1N1CCOCC1 [Example Compound S1-17, 7-(2,3-Dichlorophenyl)-N-[(4S)-3,4-dihydro-2H-chromen-4-yl]-4-fluoro-3-(morpholin-4-yl)-1-benzothiophene-2-carboxamide] | 7.30 | 0.52 µg/mL (≈ 0.933 µM) | 
14 | CN(C)c1c(C(=O)N[C@H]2CCOc3ccccc32)cnc2c1cnn2-c1cc(Cl)cc(Cl)c1 [Example Compound S4-4, 1-(3,5-Dichlorophenyl)-N-[(4S)-3,4-dihydro-2H-chromen-4-yl]-4-(dimethylamino)-1H-pyrazolo[3,4-b]pyridine-5-carboxamide] | 6.30 | > 2 µg/mL | 
15 | CN(C)c1c(C(=O)N[C@H]2CCOc3ccccc32)sc2c(-c3cccc(Cl)c3)cccc12 [Example Compound S1-6, 7-(3-Chlorophenyl)-N-[(4S)-3,4-dihydro-2H-chromen-4-yl]-3-(dimethylamino)-1-benzothiophene-2-carboxamide] | 7.50 | 0.25 µg/mL (≈ 0.54 µM) | 
16 | CC(C)c1c(C(=O)N[C@H]2CCc3ccccc32)ccc2c1nnn2-c1cccc(C(F)(F)F)c1 [Example Compound S4-9, N-[(1S)-2,3-Dihydro-1H-inden-1-yl]-4-(propan-2-yl)-1-[3-(trifluoromethyl)phenyl]-1H-benzotriazole-5-carboxamide] | 5.80 | > 2 µg/mL | 
17 | CC(C)c1c(C(=O)N[C@H]2CCc3ccccc32)ccc2c1nnn2-c1ccccc1 [Example Compound S4-7, N-[(1S)-2,3-Dihydro-1H-inden-1-yl]-1-phenyl-4-(propan-2-yl)-1H-benzotriazole-5-carboxamide] | 5.70 | > 2 µg/mL | 
18 | Cc1nn(-c2c(F)cccc2F)c2ncc(C(=O)N[C@H]3CCOc4ccccc43)c(N(C)C)c12 [Example Compound S4-3, 1-(2,6-Difluorophenyl)-N-[(4S)-3,4-dihydro-2H-chromen-4-yl]-4-(dimethylamino)-3-methyl-1H-pyrazolo[3,4-b]pyridine-5-carboxamide] | 6.80 | 1.82 µg/mL (≈ 3.93 µM) | 
19 | O=C(N[C@H]1CCOc2ccccc21)c1ccc2c(-c3cccc(Cl)c3Cl)nccc2c1 [Example Compound S6-2, 1-(2,3-Dichlorophenyl)-N-[(4S)-3,4-dihydro-2H-chromen-4-yl]isoquinoline-6-carboxamide] | 6.10 | > 2 µg/mL | 
20 | CC(C)n1c(C(=O)N[C@H]2CCOc3ccccc32)cc2c(-c3cc(Cl)cc(Cl)c3)cccc21 [Example Compound S2-5, 4-(3,5-Dichlorophenyl)-N-[(4S)-3,4-dihydro-2H-chromen-4-yl]-1-(propan-2-yl)-1H-indole-2-carboxamide] | 7.60 | 0.06 µg/mL (≈ 0.125 µM) | 
21 | O=C(N[C@H]1CCOc2ccccc21)c1ccc2nc(-c3ccccc3Cl)cnc2c1 [Example Compound S9-2, 2-(2-Chlorophenyl)-N-[(4S)-3,4-dihydro-2H-chromen-4-yl]quinoxaline-6-carboxamide] | 6.20 | 1.95 µg/mL (≈ 4.69 µM) | 
22 | O=C(N[C@H]1CCOc2ccccc21)c1ccc2nc(-c3cccc(Cl)c3Cl)cnc2c1 [Example Compound S9-4, 2-(2,3-Dichlorophenyl)-N-[(4S)-3,4-dihydro-2H-chromen-4-yl]quinoxaline-6-carboxamide] | 7.70 | 0.32 µg/mL (≈ 0.711 µM) | 
23 | CC(C)c1c(C(=O)N[C@H]2CCOc3ccccc32)nc2c(-c3cccc(Cl)c3Cl)cccn12 [Example Compound S3-1, 8-(2,3-Dichlorophenyl)-N-[(4S)-3,4-dihydro-2H-chromen-4-yl]-3-(propan-2-yl)imidazo[1,2-a]pyridine-2-carboxamide] | 6.60 | 0.63 µg/mL (≈ 1.31 µM) | 
24 | CN(C)c1c(C(=O)N[C@H]2CCOc3ccccc32)cnc2c1cnn2-c1c(F)cccc1F [Example Compound S4-5, 1-(2,6-Difluorophenyl)-N-[(4S)-3,4-dihydro-2H-chromen-4-yl]-4-(dimethylamino)-1H-pyrazolo [3,4-b]pyridine-5-carboxamide] | 6.40 | > 2 µg/mL | 
25 | Cc1nn(-c2cc(Cl)cc(Cl)c2)c2ncc(C(=O)N[C@H]3CCOc4ccccc43)c(N(C)C)c12 [Example Compound S4-2, 1-(3,5-Dichlorophenyl)-N-[(4S)-3,4-dihydro-2H-chromen-4-yl]-4-(dimethylamino)-3-methyl-1H-pyrazolo[3,4-b]pyridine-5-carboxamide] | 5.70 | > 2 µg/mL | 
26 | O=C(N[C@H]1CCOc2ccccc21)c1ccc2nc(-c3cccc(C(F)(F)F)c3Cl)cnc2c1 [Example Compound S9-1, 2-[2-Chloro-3-(trifluoromethyl)phenyl]-N-[(4S)-3,4-dihydro-2H-chromen-4-yl]quinoxaline-6-carboxamide] | 7.70 | 0.52 µg/mL (≈ 1.07 µM) | 
27 | O=C(N[C@H]1CCOc2ccccc21)c1c(N2CCOCC2)c2cccc(-c3cc(Cl)cc(Cl)c3)c2[nH]c1=O [Example Compound S8a-6, 8-(3,5-Dichlorophenyl)-N-[(4S)-3,4-dihydro-2H-chromen-4-yl]-4-(morpholin-4-yl)-2-oxo-1,2-dihydroquinoline-3-carboxamide] | 7.40 | 0.64 µg/mL (≈ 1.16 µM) | 
28 | CN(C)c1c(C(=O)N[C@H]2CCOc3ccccc32)sc2c(-c3cccc(Cl)c3Cl)cccc12 [Example Compound S1-7, 7-(2,3-Dichlorophenyl)-N-[(4S)-3,4-dihydro-2H-chromen-4-yl]-3-(dimethylamino)-1-benzothiophene-2-carboxamide] | 8.00 | 0.11 µg/mL (≈ 0.221 µM) | 
29 | CC(C)c1c(C(=O)N[C@H]2CCOc3ccccc32)sc2c(-c3ccc(F)c(F)c3)cccc12 [Example Compound S1-4, 7-(3,4-Difluorophenyl)-N-[(4S)-3,4-dihydro-2H-chromen-4-yl]-3-isopropyl-1-benzothiophene-2-carboxamide] | 7.30 | 0.77 µg/mL (≈ 1.66 µM) | 
